According to patent publication US20170190671A1, “BIS(ARYL)CATECHOL DERIVATIVES AS HERBICIDES” (E I DU PONT DE NEMOURS AND COMPANY, priority 2014, published 2017):

Experiments:
Format in all cases: in vivo
[1] = test system: giant foxtail (Setaria faberii); test: Test C postemergence; conditions: Setaria faberi, post-emergence, 336 h, Postemergence, scale 0 to 100, read-out: Plant response rating, Foxtail, Giant
Outline: (§1)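 Visual ratings were made 13-15 days after treatment in the greenhouse, scored 0-100 against controls, where 100 means complete control. Treatments used a surfactant-containing non-phytotoxic solvent formulation, applied preemergence to seeds in loam-sand soil or postemergence to 2-18 cm plants (1-4 leaves) in peat-based medium.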

[2] = test system: chickweed (common chickweed, Stellaria media); test: Test C postemergence; conditions: Stellaria media, post-emergence, Postemergence, scale 0 to 100, read-out: Plant response rating, Chickweed
Outline: as §1

[3] = test system: velvetleaf (Abutilon theophrasti); test: Test C postemergence; conditions: Abutilon theophrasti, post-emergence, Postemergence, scale 0 to 100, read-out: Plant response rating, Velvetleaf
Outline: as §1

[4] = test system: yellow nutsedge (Cyperus esculentus); test: Test C postemergence; conditions: Cyperus, post-emergence, 336 h, Postemergence, scale 0 to 100, read-out: Plant response rating, Nutsedge, Yellow
Outline: as §1

[5] = test system: blackgrass (Alopecurus myosuroides); test: Test C postemergence; conditions: Alopecurus myosuroides, post-emergence, 336 h, Postemergence, scale 0 to 100, read-out: Plant response rating, Blackgrass
Outline: as §1

[6] = test system: lambsquarters (Chenopodium album); test: Test C postemergence; conditions: Chenopodium album, post-emergence, 336 h, Postemergence, scale 0 to 100, read-out: Plant response rating, Lambsquarters
Outline: as §1

[7] = test system: Italian ryegrass (Lolium multiflorum); test: Test C preemergence; conditions: Lolium multiflorum, pre-emergence, 336 h, scale 0 to 100, read-out: Plant response rating, Ryegrass, Italian
Outline: as §1

[8] = test system: pigweed (Amaranthus retroflexus); test: Test C preemergence; conditions: Amaranthus retroflexus, pre-emergence, 336 h, scale 0 to 100, read-out: Plant response rating, Pigweed
Outline: as §1

[9] = test system: morningglory (Ipomoea coccinea); test: Test C preemergence; conditions: Ipomoea, pre-emergence, 336 h, scale 0 to 100, read-out: Plant response rating, Morningglory
Outline: as §1

[10] = test system: giant foxtail (Setaria faberii); test: Test C preemergence; conditions: Setaria faberi, pre-emergence, 336 h, scale 0 to 100, read-out: Plant response rating, Foxtail, Giant
Outline: as §1

[11] = test system: velvetleaf (Abutilon theophrasti); test: Test C preemergence; conditions: Abutilon theophrasti, pre-emergence, scale 0 to 100, read-out: Plant response rating, Velvetleaf
Outline: as §1

[12] = test system: ragweed (common ragweed, Ambrosia elatior); test: Test C preemergence; conditions: Ambrosia artemisiifolia, pre-emergence, 336 h, scale 0 to 100, read-out: Plant response rating, Ragweed
Outline: as §1

[13] = test system: large (Lg) crabgrass (Digitaria sanguinalis); test: Test C preemergence; conditions: Digitaria sanguinalis, pre-emergence, 336 h, scale 0 to 100, read-out: Plant response rating, Crabgrass, Large
Outline: as §1

[14] = test system: yellow nutsedge (Cyperus esculentus); test: Test C preemergence; conditions: Cyperus, pre-emergence, 336 h, scale 0 to 100, read-out: Plant response rating, Nutsedge, Yellow
Outline: as §1

[15] = test system: blackgrass (Alopecurus myosuroides); test: Test C preemergence; conditions: Alopecurus myosuroides, pre-emergence, 336 h, scale 0 to 100, read-out: Plant response rating, Blackgrass
Outline: as §1

[16] = test system: winter wheat (Triticum aestivum); test: Test C preemergence; conditions: Triticum aestivum, pre-emergence, 336 h, scale 0 to 100, read-out: Plant response rating, Wheat
Outline: as §1

[17] = test system: waterhemp (common waterhemp, Amaranthus rudis); test: Test C preemergence; conditions: Amaranthus tuberculatus, pre-emergence, scale 0 to 100, read-out: Plant response rating, Waterhemp
Outline: as §1

[18] = test system: johnsongrass (Sorghum halepense); test: Test C preemergence; conditions: Sorghum halepense, pre-emergence, 336 h, scale 0 to 100, read-out: Plant response rating, Johnsongrass
Outline: as §1

[19] = test system: oilseed rape (Brassica napus); test: Test C preemergence; conditions: Brassica napus, pre-emergence, scale 0 to 100, read-out: Plant response rating, Oilseed Rape
Outline: as §1

[20] = test system: galium (catchweed bedstraw, Galium aparine); test: Test C preemergence; conditions: Galium, pre-emergence, 336 h, scale 0 to 100, read-out: Plant response rating, Galium
Outline: as §1

corn (Zea mays) = test: Test C preemergence; conditions: Zea mays, pre-emergence, 336 h, scale 0 to 100
Outline: as §1

soybean (Glycine max) = test: Test C preemergence; conditions: Glycine max, pre-emergence, scale 0 to 100, read-out: Plant response rating, Soybean
Outline: as §1

## Fc1cccc(Oc2ncc(Cl)cn2)c1Oc1ncc(Cl)cn1 [Compound 21, 2,2′-[[3-fluoro-1,2-phenylene]bis(oxy)]bis[5-chloropyrimidine]]
[1]; 16 g ai/ha
  pest or weed control at 16 g/ha: 5%
[1]; 31 g ai/ha
  pest or weed control at 31 g/ha: 5%
[1]; 62 g ai/ha
  pest or weed control at 62 g/ha: 20%
[1]; 125 g ai/ha
  pest or weed control at 125 g/ha: 20%
[2]; 16 g ai/ha
  pest or weed control at 16 g/ha: 50%
[2]; 31 g ai/ha
  pest or weed control at 31 g/ha: 50%
[2]; 62 g ai/ha
  pest or weed control at 62 g/ha: 60%
[2]; 125 g ai/ha
  pest or weed control at 125 g/ha: 100%
[3]; 31 g ai/ha
  pest or weed control at 31 g/ha: 50%
[3]; 62 g ai/ha
  pest or weed control at 62 g/ha: 65%
[3]; 125 g ai/ha
  pest or weed control at 125 g/ha: 70%
[4]; 31 g ai/ha
  pest or weed control at 31 g/ha: 5%
[4]; 62 g ai/ha
  pest or weed control at 62 g/ha: 5%
[4]; 125 g ai/ha
  pest or weed control at 125 g/ha: 5%
[5]; 16 g ai/ha
  pest or weed control at 16 g/ha: 5%
[5]; 31 g ai/ha
  pest or weed control at 31 g/ha: 5%
[5]; 62 g ai/ha
  pest or weed control at 62 g/ha: 20%
[5]; 125 g ai/ha
  pest or weed control at 125 g/ha: 70%
[6]; 16 g ai/ha
  pest or weed control at 16 g/ha: 15%
[6]; 31 g ai/ha
  pest or weed control at 31 g/ha: 70%
[6]; 62 g ai/ha
  pest or weed control at 62 g/ha: 98%
[6]; 125 g ai/ha
  pest or weed control at 125 g/ha: 90%
[7]; 31 g ai/ha, preemergence
  pest or weed control at 31 g/ha: 50%
[7]; 62 g ai/ha, preemergence
  pest or weed control at 62 g/ha: 85%
[7]; 125 g ai/ha, preemergence
  pest or weed control at 125 g/ha: 90%
[7]; Preemergence, 16 g ai/ha
  pest or weed control at 16 g/ha: 10%
[8]; 31 g ai/ha, preemergence
  pest or weed control at 31 g/ha: 100%
[8]; 62 g ai/ha, preemergence
  pest or weed control at 62 g/ha: 100%
[8]; 125 g ai/ha, preemergence
  pest or weed control at 125 g/ha: 100%
[8]; Preemergence, 16 g ai/ha
  pest or weed control at 16 g/ha: 100%
[9]; 31 g ai/ha, preemergence
  pest or weed control at 31 g/ha: 80%
[9]; 62 g ai/ha, preemergence
  pest or weed control at 62 g/ha: 85%
[9]; 125 g ai/ha, preemergence
  pest or weed control at 125 g/ha: 98%
[9]; Preemergence, 16 g ai/ha
  pest or weed control at 16 g/ha: 70%
[10]; 31 g ai/ha, preemergence
  pest or weed control at 31 g/ha: 100%
[10]; 62 g ai/ha, preemergence
  pest or weed control at 62 g/ha: 100%
[10]; 125 g ai/ha, preemergence
  pest or weed control at 125 g/ha: 100%
[10]; Preemergence, 16 g ai/ha
  pest or weed control at 16 g/ha: 90%
[11]; 31 g ai/ha, preemergence
  pest or weed control at 31 g/ha: 100%
[11]; 62 g ai/ha, preemergence
  pest or weed control at 62 g/ha: 100%
[11]; 125 g ai/ha, preemergence
  pest or weed control at 125 g/ha: 100%
[11]; Preemergence, 16 g ai/ha
  pest or weed control at 16 g/ha: 100%
[12]; 31 g ai/ha, preemergence
  pest or weed control at 31 g/ha: 85%
[12]; 62 g ai/ha, preemergence
  pest or weed control at 62 g/ha: 85%
[12]; 125 g ai/ha, preemergence
  pest or weed control at 125 g/ha: 85%
[12]; Preemergence, 16 g ai/ha
  pest or weed control at 16 g/ha: 65%
[13]; 31 g ai/ha, preemergence
  pest or weed control at 31 g/ha: 100%
[13]; 62 g ai/ha, preemergence
  pest or weed control at 62 g/ha: 100%
[13]; 125 g ai/ha, preemergence
  pest or weed control at 125 g/ha: 100%
[13]; Preemergence, 16 g ai/ha
  pest or weed control at 16 g/ha: 98%
[14]; 31 g ai/ha, preemergence
  pest or weed control at 31 g/ha: 5%
[14]; 62 g ai/ha, preemergence
  pest or weed control at 62 g/ha: 35%
[14]; 125 g ai/ha, preemergence
  pest or weed control at 125 g/ha: 85%
[14]; Preemergence, 16 g ai/ha
  pest or weed control at 16 g/ha: 0%
[15]; 31 g ai/ha, preemergence
  pest or weed control at 31 g/ha: 30%
[15]; 62 g ai/ha, preemergence
  pest or weed control at 62 g/ha: 90%
[15]; 125 g ai/ha, preemergence
  pest or weed control at 125 g/ha: 90%
[15]; Preemergence, 16 g ai/ha
  pest or weed control at 16 g/ha: 30%
[16]; 31 g ai/ha, preemergence
  plant injury at 31 g/ha: 40%
[16]; 62 g ai/ha, preemergence
  plant injury at 62 g/ha: 50%
[16]; 125 g ai/ha, preemergence
  plant injury at 125 g/ha: 90%
[16]; Preemergence, 16 g ai/ha
  plant injury at 16 g/ha: 0%
[17]; 31 g ai/ha, preemergence
  pest or weed control at 31 g/ha: 100%
[17]; 62 g ai/ha, preemergence
  pest or weed control at 62 g/ha: 100%
[17]; 125 g ai/ha, preemergence
  pest or weed control at 125 g/ha: 100%
[17]; Preemergence, 16 g ai/ha
  pest or weed control at 16 g/ha: 100%
[18]; 31 g ai/ha, preemergence
  pest or weed control at 31 g/ha: 50%
[18]; 62 g ai/ha, preemergence
  pest or weed control at 62 g/ha: 85%
[18]; 125 g ai/ha, preemergence
  pest or weed control at 125 g/ha: 98%
[18]; Preemergence, 16 g ai/ha
  pest or weed control at 16 g/ha: 5%
[19]; 31 g ai/ha, preemergence
  plant injury at 31 g/ha: 100%
[19]; 62 g ai/ha, preemergence
  plant injury at 62 g/ha: 100%
[19]; 125 g ai/ha, preemergence
  plant injury at 125 g/ha: 100%
[19]; Preemergence, 16 g ai/ha
  plant injury at 16 g/ha: 98%
[20]; 31 g ai/ha, preemergence
  pest or weed control at 31 g/ha: 100%
[20]; 62 g ai/ha, preemergence
  pest or weed control at 62 g/ha: 100%
[20]; 125 g ai/ha, preemergence
  pest or weed control at 125 g/ha: 100%
[20]; Preemergence, 16 g ai/ha
  pest or weed control at 16 g/ha: 98%
Corn (Zea mays); 31 g ai/ha, preemergence
  Corn plant response rating (crop injury, 0 = no effect, 100 = complete kill) at 31 g/ha: 25%
Corn (Zea mays); 62 g ai/ha, preemergence
  Corn plant response rating (crop injury, 0 = no effect, 100 = complete kill) at 62 g/ha: 45%
Corn (Zea mays); 125 g ai/ha, preemergence
  Corn plant response rating (crop injury, 0 = no effect, 100 = complete kill) at 125 g/ha: 98%
Corn (Zea mays); Preemergence, 16 g ai/ha
  Corn plant response rating (crop injury, 0 = no effect, 100 = complete kill) at 16 g/ha: 5%
Soybean (Glycine max); 31 g ai/ha, preemergence
  plant injury at 31 g/ha: 90%
Soybean (Glycine max); 62 g ai/ha, preemergence
  plant injury at 62 g/ha: 95%
Soybean (Glycine max); 125 g ai/ha, preemergence
  plant injury at 125 g/ha: 98%
Soybean (Glycine max); Preemergence, 16 g ai/ha
  plant injury at 16 g/ha: 85%
